The text below walks through data of ChEMBL document CHEMBL2331395, “Natural product coumarins that inhibit human carbonic anhydrases” (Bioorg Med Chem, 2013).

Experiment [1] has as its target Carbonic anhydrase 2 (Homo sapiens, UniProt P00918). The experiment is described as follows: Inhibition of human carbonic anhydrase 2 preincubated for 6 hrs by CO2 hydration stopped-flow assay.
For experiment [2], the target named is Carbonic anhydrase 9 (Homo sapiens, UniProt Q16790). The experiment is described as follows: Inhibition of human carbonic anhydrase 9 preincubated for 6 hrs by CO2 hydration stopped-flow assay.
The target in experiment [3] is Carbonic anhydrase 13 (Homo sapiens, UniProt Q8N1Q1). The experiment is described as follows: Inhibition of human carbonic anhydrase 13 preincubated for 6 hrs by CO2 hydration stopped-flow assay.
Experiment [4] addresses Carbonic anhydrase 1 (Homo sapiens, UniProt P00915). The experiment is described as follows: Inhibition of human carbonic anhydrase 1 preincubated for 6 hrs by CO2 hydration stopped-flow assay.
Experiment [5] addresses Carbonic anhydrase 7 (Homo sapiens, UniProt P43166). The experiment is described as follows: Inhibition of human carbonic anhydrase 7 preincubated for 6 hrs by CO2 hydration stopped-flow assay.
For experiment [6], the target named is Carbonic anhydrase 12 (Homo sapiens, UniProt O43570). The experiment is described as follows: Inhibition of human carbonic anhydrase 12 preincubated for 6 hrs by CO2 hydration stopped-flow assay.

Where only a bound is given, the exact number is not on record here.

Carbonic anhydrase 7, sequence (P43166 whole entry): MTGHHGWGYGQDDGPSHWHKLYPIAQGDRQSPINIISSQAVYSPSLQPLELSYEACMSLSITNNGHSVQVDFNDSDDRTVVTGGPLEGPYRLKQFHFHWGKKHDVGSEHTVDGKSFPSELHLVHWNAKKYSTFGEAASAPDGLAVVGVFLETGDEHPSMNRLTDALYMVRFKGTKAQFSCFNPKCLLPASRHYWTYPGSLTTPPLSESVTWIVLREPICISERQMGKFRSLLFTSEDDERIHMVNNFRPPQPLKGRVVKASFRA
Carbonic anhydrase 1, sequence (P00915 whole entry): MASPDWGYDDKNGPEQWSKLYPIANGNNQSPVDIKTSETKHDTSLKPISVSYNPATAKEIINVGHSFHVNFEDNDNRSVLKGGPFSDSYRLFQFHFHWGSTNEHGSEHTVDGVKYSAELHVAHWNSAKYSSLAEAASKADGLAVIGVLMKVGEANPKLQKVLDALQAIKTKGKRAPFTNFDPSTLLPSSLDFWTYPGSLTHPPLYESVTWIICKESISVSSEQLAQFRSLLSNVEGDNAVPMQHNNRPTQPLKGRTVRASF
Carbonic anhydrase 12, sequence (O43570 whole entry): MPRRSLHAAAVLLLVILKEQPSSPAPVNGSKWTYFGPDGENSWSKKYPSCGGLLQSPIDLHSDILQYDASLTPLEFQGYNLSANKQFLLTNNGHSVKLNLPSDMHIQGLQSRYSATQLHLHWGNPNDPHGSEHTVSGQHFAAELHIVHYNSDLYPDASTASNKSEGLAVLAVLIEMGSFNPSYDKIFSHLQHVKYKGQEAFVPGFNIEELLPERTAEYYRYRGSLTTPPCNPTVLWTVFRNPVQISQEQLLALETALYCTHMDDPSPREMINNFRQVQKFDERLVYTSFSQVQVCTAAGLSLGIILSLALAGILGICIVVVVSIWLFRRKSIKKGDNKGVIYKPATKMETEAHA
Carbonic anhydrase 13, sequence (Q8N1Q1 whole entry): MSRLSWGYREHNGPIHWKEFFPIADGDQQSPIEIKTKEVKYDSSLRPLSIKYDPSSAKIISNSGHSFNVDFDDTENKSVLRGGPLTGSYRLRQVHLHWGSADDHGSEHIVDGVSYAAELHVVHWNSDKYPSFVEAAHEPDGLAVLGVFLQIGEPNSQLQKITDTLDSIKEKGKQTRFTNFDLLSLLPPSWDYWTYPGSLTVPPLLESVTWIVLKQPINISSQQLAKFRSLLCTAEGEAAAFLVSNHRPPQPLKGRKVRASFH

Usually Ki stands for the dissociation constant of the complex between target and ligand, obtained from inhibition or displacement. Regarding `COc1cc2c(=O)oc3c(OC)c(OC)cc4c(=O)oc(c1O)c2c34`, the Ki was more than 100 µM in experiment [1] and 17.4 µM in experiment [2].

Consider `C/C(=C\COc1ccc2ccc(=O)oc2c1)CCC(=O)C(C)(C)O`, for which the Ki was more than 100 µM in experiment [1] and 4.03 µM in experiment [2].

For the compound `COc1ccc2ccc(=O)oc2c1C(C=O)=C(C)C` [MURRALONGIN], the Ki in experiment [1] was more than 100 µM; in experiment [2], 8.12 µM.

Regarding `COc1cc2ccc(=O)oc2c(O)c1OC`, the Ki in experiment [1] is more than 100 µM; in experiment [2] it was 0.85 µM.

As for `COc1c2c(c(OC)c3oc(=O)ccc13)OC(C)(C)C=C2`, the Ki in experiment [3] was more than 100 µM; in experiment [1], 49.3 µM; in experiment [2], 0.86 µM.

Regarding `COc1c2c(cc3oc(=O)ccc13)OC(C)(C)C=C2` [XANTHOXYLETIN], the Ki in experiment [3] is 3.15 µM; in experiment [4] it was 7.71 µM; in experiment [1], more than 100 µM; in experiment [5], 6.27 µM; in experiment [6], 0.96 µM; in experiment [2], 0.74 µM.

`C/C(=C\Cc1cc2ccc(=O)oc2cc1O)CO`: the Ki in experiment [1] was 78.9 µM; in experiment [2], 9.75 µM.

For `C/C(=C\COc1ccc2ccc(=O)oc2c1)C1=CC(=O)C(C)(C)O1` [GEIPARVARIN], the Ki in experiment [3] is 9.62 µM; in experiment [4], 9.75 µM; in experiment [1], more than 100 µM; in experiment [5] it was 7.82 µM; in experiment [6] it was 0.83 µM; in experiment [2], 0.6 µM.

Regarding `CCCc1cc(=O)oc2c3c(c4c(c12)OC(C)(C)C=C4)O[C@H](C)[C@@H](C)[C@H]3O` [(+)-CALANOLIDE B], the Ki in experiment [3] was determined as 21 µM; in experiment [4] it was 9.31 µM; in experiment [1], 50.7 µM; in experiment [5], 8.87 µM; in experiment [6], 0.81 µM.

For `COc1cc2ccc(=O)oc2c(O[C@@H]2O[C@H](CO)[C@@H](O)[C@H](O)[C@H]2O)c1O` [FRAXINE], the Ki was 9.8 µM in experiment [3]; 5.04 µM in experiment [4]; more than 100 µM in experiment [1]; 3.87 µM in experiment [5]; 7.45 µM in experiment [6]; 0.37 µM in experiment [2].

In the case of `CC1(C)C=Cc2cc3ccc(=O)oc3cc2O1` [XANTHYLETIN], the Ki is 8.36 µM in experiment [3]; 21.5 µM in experiment [4]; more than 100 µM in experiment [1]; 9.18 µM in experiment [5]; 25.7 µM in experiment [6]; 7.51 µM in experiment [2].

Take `COc1cc2oc(=O)ccc2c2c1C=CC(C)(C)O2` [ALLOXANTHOXYLETIN]: the Ki in experiment [1] was more than 100 µM; in experiment [2], 3.5 µM.

In the case of `COc1c(O)ccc2ccc(=O)oc12`, the Ki in experiment [1] was more than 100 µM; in experiment [2], 0.85 µM.

Regarding `COc1cc2oc(=O)ccc2cc1O` [ISOSCOPOLETIN], the Ki was 5.27 µM in experiment [3]; 14 µM in experiment [4]; more than 100 µM in experiment [1]; 23.8 µM in experiment [5]; 4.14 µM in experiment [6]; 7.37 µM in experiment [2].

For the compound `O=c1oc2c(O)c(O)cc3c(=O)oc4c(O)c(O)cc1c4c23` [ELLAGIC ACID], the Ki is 4.24 µM in experiment [3]; 68.2 µM in experiment [4]; 8.79 µM in experiment [5]; 8.15 µM in experiment [6]; 79.8 µM in experiment [2].

For `CC(CCOc1ccc2ccc(=O)oc2c1)C1=CC(=O)C(C)(C)O1` (centres undefined), the Ki in experiment [1] amounted to 63.4 µM; in experiment [2], 0.89 µM.

For `COc1ccc(-c2c3n(c4c(=O)oc5cc(O)c(OC)cc5c24)CCc2c-3cc(OC)c(OC)c2O)cc1O`, the Ki in experiment [1] is more than 100 µM; in experiment [2], 3.22 µM.

Turning to `COc1cc(-c2c3c4cc(OC)c(O)cc4oc(=O)c3n3ccc4c(OC)c(OC)c(OC)cc4c23)ccc1O`, the Ki is more than 100 µM in experiment [1] and 6.33 µM in experiment [2].

On to `COc1c2c(c3ccc(=O)oc3c1/C=C/C(C)(C)O)OC(C)(C)C=C2` [AVICENNOL], for which the Ki was 29.3 µM in experiment [3]; 8.46 µM in experiment [4]; more than 100 µM in experiment [1]; 8.98 µM in experiment [5]; 0.77 µM in experiment [6]; 0.78 µM in experiment [2].

For `COc1cc(OC)c2ccc(=O)oc2c1OC`, the inhibition constant (Ki) in experiment [1] is 9.65 µM; in experiment [2], 0.76 µM.

For the compound `COc1ccc(-c2c3n(c4c(=O)oc5cc(OC)c(O)cc5c24)CCc2cc(OS(=O)(=O)O)c(OC)cc2-3)cc1O`, the Ki in experiment [1] was more than 100 µM; in experiment [2], 3.27 µM.

Turning to `C=C(C)/C=C/c1c(OC)c2c(c3ccc(=O)oc13)OC(C)(C)C=C2`, the results for the Ki in experiment [1] and in experiment [2] were more than 100 µM and 0.62 µM, respectively.

Take `O=c1ccc2ccccc2o1` [COUMARIN]: the Ki in experiment [3] and in experiment [5] was more than 1000 µM in each case.

Turning to `COc1cc2ccc(=O)oc2cc1O[C@@H]1O[C@H](CO)[C@@H](O)[C@H](O)[C@H]1O` [SCOPOLIN], the Ki in experiment [1] is more than 100 µM; in experiment [2], 8.72 µM.

Consider `COc1cc2ccc(=O)oc2cc1O` [SCOPOLETIN], for which the Ki in experiment [3] was 17.8 µM; in experiment [4], 10.6 µM; in experiment [1], more than 100 µM; in experiment [5], 8.71 µM; in experiment [6], 4.05 µM; in experiment [2], 0.96 µM.

Turning to `C=C(C)C(COC(=O)c1cccnc1)c1c(OC)ccc2ccc(=O)oc12` (centres undefined), the figures for the Ki in experiment [1], in experiment [5] and in experiment [2] were more than 100 µM, more than 100 µM and 0.67 µM, respectively.

With `COc1cc2ccc(=O)oc2c(OC)c1OC` [FRAXIDIN METHYL ETHER], the Ki was 4.24 µM in experiment [3]; 0.0097 µM in experiment [4]; more than 100 µM in experiment [1]; 9.28 µM in experiment [5]; 18.2 µM in experiment [6]; 6.58 µM in experiment [2].
